Laboratory results: paper PMC5460220, “Dual PI3K and Wnt pathway inhibition is a synergistic combination against triple negative breast cancer” (NPJ Breast Cancer, 2017)
Where two headings read alike, the source gives them in different places.

How the values were obtained:
porcupine (PORCN) = experiment: RNA-seq of MDA-MB-231 cells before and after buparlisib treatment; format: cell-based, human; details: MDA-MB-231, RNA-seq before and after treatment
Experimental: RNA-sequencing for the buparlisib treated MDA-MB-231 cell line experiment was performed as follows. To enrich for the non-ribosomal RNA transcriptome, RNA samples were first depleted of ribosomal RNA using the Low Input Ribominus Kit (Life Technologies). ERCC spike-in controls (Pool 1) were introduced for all samples (Life Technologies). RNA libraries were constructed using the Ion Total RNA-Seq Kit for AB Library Builder System (Life Technologies) per manufacturer’s instructions. Libraries were barcoded using the IonXpress RNA-Seq Barcode 1–16 Kit (Life Technologies), and libraries were quantified using the Agilent TapeStation 2200 along with the DNA D1K Kit. Libraries were diluted to a concentration of 11 pM prior to templating and emulsion polymerase chain reaction (PCR) using the Ion Template OT2 200 v2 kit along with Ion OneTouch 2 instrument (Life Technologies). Templates were quantified using the IonSphere Quality Control Kit (Life Technologies). Samples were sequenced on an Ion Proton Next-Generation Sequencer using the Ion Proton PI chip and the Ion PI Sequencing 200 v2 kit (Life Technologies). Samples were sequenced using two RNA-seq libraries/samples per chip to an average of 30–40 million reads per sample. Reads were mapped to the human genome (hg19) using the STAR algorithm.[36] Aligned BAM files were then imported into Partek Genomics Suite. […]

[1] = system: phosphorylated-AKT (p-AKT Ser 473); experiment: western blot for p-AKT in TNBC cell lines; format: cell-based, human; details: MDA-MB-231, HCC70 and HCC1143; 48 h treatment
Experimental: (§1) To further confirm the induction of porcupine after buparlisib treatment, but at the protein level, we performed western blotting for porcupine and p-AKT before and after treatment with buparlisib.
(§2) Target modulation was assessed using qPCR for Axin2 (a marker of WNT974), and western blot for porcupine and phospho-Akt Ser 473 (a marker of buparlisib activity). qPCR was performed using Taqman assays (Life Technologies). Protein was isolated after 48 h of treatment in biological triplicates using radioimmunoprecipitation assay buffer and quantified with bicinchoninic acid assay (Thermo Fisher). Protein was run on bis-tris gels (Life Technologies) and transferred to polyvinylidene fluoride membrane. Primary pAKT-Ser 473 antibody (Cell Signaling Technology, Beverly, Massachusetts), β-actin (Cell Signaling Technology), and PORCN (Abcam, Cambridge, England) was incubated overnight with subsequent 1-hour incubation with horseradish peroxidase-conjugate secondary antibody. Staining was performed using a chemiluminescent substrate (ThermoFisher). Imaging was performed using an LAS-4000 Luminescent Image Analyzer (Fujifilm, Tokyo, Japan). Quantification of blots was performed using ImageJ (NIH) and statistical analysis using GraphPad.

[2] = system: porcupine (PORCN) protein; experiment: western blot for porcupine in TNBC cell lines; format: cell-based, human
Experimental: as §1, §2

[3] = quantification of drug in resected tumors, HPLC-MS/MS; format: in vivo, NSG mice; details: NSG, mouse, tumor, 7 days once daily, average with standard deviation; for concentration at 1 h: 1 h post the last dose; for concentration at 7 h: 7 h post the last dose
Experimental: After 7 days of treatment, we observe a ~40% decrease in tumor volume. b Quantification of drug in tumors resected from mice treated in our PD study. Half of the tumors were resected at 1 h post the last dose, and the other half 7 h post the last dose. Using Highperformance liquid chromatography-mass spectrometry (HPLC-MS/MS), buparlisib and WNT974 were quantified as nanograms of drug per gram of tumor tissue (ng/g). Average values with standard deviation are presented. LOQ limit of quantitation c As TMD-231 cells have a known propensity to metastasize to the lung, we assessed the effect of the combination therapy on the growth of lung metastases.

phospho-AKT = experiment: western blot for phospho-AKT in PD study tumors; format: in vivo, NSG mice; details: TMD-231 xenograft tumors, 7 days of dosing
Experimental: (§3) To further assess preliminary efficacy and target modulation, a PD experiment was performed. […] Tumors were allowed to grow for 29 days to an average size of ~350 mm^3. […] After only 7 days of treatment, we observed a ~40% decrease in tumor volume with the combination, while tumors actually grew slightly in the face of single agent therapy, again, giving further observations of synergy (Fig. 4a). On the 7th day, the mice had plasma drawn, and then euthanized and the tumor removed. Measurement of buparlisib and WNT974 concentrations in tumor tissue confirmed that these agents were reaching the tumor (Fig. 4b). To assess molecular target modulation, RNA and protein was isolated from each of the tumors in our PD study and biomarker analysis was performed. […] (Supplementary Fig. 3a). […] Target modulation was assessed using qPCR for Axin2 (a marker of WNT974), and western blot for porcupine and phospho-Akt […] (a marker of buparlisib activity). qPCR was performed using Taqman assays (Life Technologies). Protein was isolated after 48 h of treatment in biological triplicates using radioimmunoprecipitation assay buffer and quantified with bicinchoninic acid assay (Thermo Fisher). Protein was run on bis-tris gels (Life Technologies) and transferred to polyvinylidene fluoride membrane. […] Quantification of blots was performed using ImageJ (NIH) and statistical analysis using GraphPad.

TMD-231 lung metastases = experiment: quantification of lung metastases, Ki67 staining; format: in vivo, NSG mice; details: TMD-231 xenograft, PD study lungs; combination p = 0.0196
Source text: The TMD-231 cells used in our PD study have a known propensity to metastasize to the lung.[29] To assess the effect of the combination therapy on the growth of lung metastases, lung tissues from our PD study were stained and analyzed for metastatic burden. […] Lungs were extracted, fixed in 10% formalin, and processed in paraffin. Five-micrometer sections were H&E stained, deparaffinized, blocked, and stained using primary anti-human Ki67 antibody (DAKO, Carpinteria, California). The Aperio whole slide digital imaging system was used for imaging (Leica, Wetzlar, Germany). Using the Aperio ScanScope CS, ×20 images were taken at scan times ranging from 1.5 to 2.25 min. The total nuclear labeling index (Ki67) was generated using the Aperio ImageScope standard positive pixel algorithm. The Image Analysis software was used to calculate the percent of positive pixels (brown staining) in one large cross section from each lung.

[4] = system: TNBC patient-derived xenograft (PDX); experiment: TNBC PDX survival study; format: in vivo, NSG mice; details: n = 10 per group, once-a-day for a maximum of 28 days, buparlisib 30 mg/kg, WNT974 3 mg/kg
[5] = known; cited from earlier work
AXIN2 RNA = experiment: qPCR for AXIN2 RNA in PD study tumors; format: in vivo, NSG mice; details: TMD-231 xenograft tumors, 7 days of dosing
Experimental: as §3

porcupine = system: porcupine; set-up: method as in PMID 24277854; details: recently published data; cited from earlier work
tumor growth = system: tumor growth; set-up: method as in PMID 24277854; details: recently published data; cited from earlier work
advanced TNBC = system: advanced TNBC; set-up: method as in ref 17 = [17]; 17. Nanda, R. A phase Ib study of pembrolizumab (MK-3475) in patients with advanced triple- negative breast cancer. SABCS Annual. Meeting. Oral. Presentation . (2014).; details: phase Ib trial; cited from earlier work
metastatic TNBCs = system: metastatic TNBCs; set-up: method as in ref 16 = [16]; 16. Dirix, L. Avelumab (MSB0010718C), an anit-PD-L1 antibody, in patients with locally advanced or metastatic breast cancer: a phse Ib JAVELIN solid tumor trial. SABCS Annual. Meeting. Oral. Presentat; details: patients with metastatic TNBCs, phase Ib JAVELIN trial; cited from earlier work
[6] = 30 mg/kg, read-out: Buparlisib in tumor tissue
[7] = 3 mg/kg, read-out: WNT974 in tumor tissue

Nc1cc(C(F)(F)F)c(-c2cc(N3CCOCC3)nc(N3CCOCC3)n2)cn1 [buparlisib]
PORCN over-expression after PI3K inhibition (porcupine (PORCN)): ~ 8 fold
phospho-AKT after treatment [1]: potent inhibition
PORCN protein, quantified western blot ([2]; HCC70, 10 x IC50 buparlisib, p-value 0.0084): significant increase
PORCN protein, quantified western blot ([2]; HCC1143, IC50 buparlisib, p-value 0.013): significant increases
PORCN protein, quantified western blot ([2]; MD-MB-231, IC50 buparlisib, p-value 0.0072): significant increases
concentration at 1 h [3, 6]: 3590 ± 898 ng/g
concentration at 7 h [3, 6]: 2960 ± 683 ng/g
inhibition of phospho-AKT in tumors (phospho-AKT): observed
lung metastases compared with the control group (TMD-231 lung metastases): small but non-significant decreases
mice survived to the end of the study [4]: 40%
toxicity / most common side effect in humans [5]: depression, anxiety, pneumonitis, and liver toxicity

Cc1cc(-c2ncc(CC(=O)Nc3ccc(-c4cnccn4)cn3)cc2C)ccn1 [WNT974]
concentration at 1 h [3, 7]: 19.2 ± 1.11 ng/g
concentration at 7 h [3, 7]: 8.34 ± 0.33 ng/g
inhibition of phospho-AKT in tumors (phospho-AKT): not
AXIN2 RNA levels in tumors (AXIN2 RNA): decreased
lung metastases compared with the control group (TMD-231 lung metastases): small but non-significant decreases
mice survived to the end of the study [4]: 0%
inhibition of its target (porcupine) (porcupine): potent inhibition
inhibition of tumor growth in vivo (tumor growth): significant inhibition
toxicity / most common side effect in humans [5]: dysgeusia

pembrolizumab: immune checkpoint therapy tested in a phase Ib trial in advanced TNBC
overall response rate (advanced TNBC): 18.5%

avelumab: an anti-PD-L1 antibody
overall response rate (metastatic TNBCs): 8.6%
